Assay results taken from US8278345B2, “Inhibitors of glutaminyl cyclase” (Probiodrug AG, priority 2006, dated 2012).

Tests used:
hQC = hQC (Homo sapiens, UniProt Q16769); assay: Inhibitor assay for glutaminyl cyclase activity (fluorometric, H-Gln-βNA / H-Gln-AMC); type: biochemical; conditions: for Ki: compound from preparative synthesis, purified; for IC50: read-out: IC50
Procedure, shortened: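 Coupled fluorometric assay at 30 °C with pyroglutamyl aminopeptidase, in Tris/HCl pH 8.0 with EDTA, substrate H-Gln-βNA (0.2 mM; ex/em 320/410 nm) or H-Gln-AMC (ex/em 380/460 nm), initiated by QC. Screening: 4 mM inhibitor, substrate at 1 KM; Ki from progress curves fitted to competitive inhibition.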

Sequence of hQC (Q16769 29-361): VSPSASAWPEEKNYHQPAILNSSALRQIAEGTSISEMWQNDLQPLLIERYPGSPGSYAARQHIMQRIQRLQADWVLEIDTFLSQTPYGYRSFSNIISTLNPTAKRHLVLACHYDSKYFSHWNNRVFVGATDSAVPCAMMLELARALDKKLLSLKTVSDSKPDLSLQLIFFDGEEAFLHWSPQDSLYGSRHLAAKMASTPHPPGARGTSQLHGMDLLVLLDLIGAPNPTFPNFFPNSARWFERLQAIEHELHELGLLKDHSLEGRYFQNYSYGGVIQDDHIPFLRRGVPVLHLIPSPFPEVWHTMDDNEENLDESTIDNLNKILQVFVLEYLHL

Work on `CC1=C(O)C(=O)N(c2ccc3[nH]cnc3c2)C1c1cc(F)c(F)cc1F` (stereo not drawn) [Compound 469, 1-(1H-benzo[d]imidazol-5-yl)-5-(2,4,5-trifluorophenyl)-3-hydroxy-4-methyl-1H-pyrrol-2(5H)-one] yielded a Ki (hQC) of 0.0536 µM, an IC50 (hQC) of 0.233 µM and a melting point of 184 °C.

In the case of `CC1=C(O)C(=O)N(c2ccc3[nH]cnc3c2)C1c1cccc(Cl)c1Cl` (stereo not drawn) [Compound 468, 1-(1H-benzo[d]imidazol-5-yl)-5-(2,3-dichlorophenyl)-3-hydroxy-4-methyl-1H-pyrrol-2(5H)-one], the Ki (hQC) is reported as 0.0146 µM, the IC50 (hQC) is reported as 0.075 µM and the melting point is reported as 162 to 174 °C.
